# Results: ChEMBL document CHEMBL4507281, “Data for DCP probe BI-4394” (2021)
# How the values were obtained:
# Conditions in all cases: Compound concentration 10.0 uM
# [1] = molecular target: AMP-activated protein kinase (AMPK) alpha-1/beta-1/gamma-1 (Homo sapiens) (UniProt P54619+Q9Y478+Q13131)
# [2] = molecular target: Cyclin-dependent kinase 1/cyclin B (Homo sapiens) (UniProt P06493+P14635+Q8WWL7+O95067)
# [3] = molecular target: Receptor tyrosine-protein kinase erbB-2 (Homo sapiens) (UniProt P04626)
# Sequence of Receptor tyrosine-protein kinase erbB-2 (Homo sapiens) (P04626 whole entry): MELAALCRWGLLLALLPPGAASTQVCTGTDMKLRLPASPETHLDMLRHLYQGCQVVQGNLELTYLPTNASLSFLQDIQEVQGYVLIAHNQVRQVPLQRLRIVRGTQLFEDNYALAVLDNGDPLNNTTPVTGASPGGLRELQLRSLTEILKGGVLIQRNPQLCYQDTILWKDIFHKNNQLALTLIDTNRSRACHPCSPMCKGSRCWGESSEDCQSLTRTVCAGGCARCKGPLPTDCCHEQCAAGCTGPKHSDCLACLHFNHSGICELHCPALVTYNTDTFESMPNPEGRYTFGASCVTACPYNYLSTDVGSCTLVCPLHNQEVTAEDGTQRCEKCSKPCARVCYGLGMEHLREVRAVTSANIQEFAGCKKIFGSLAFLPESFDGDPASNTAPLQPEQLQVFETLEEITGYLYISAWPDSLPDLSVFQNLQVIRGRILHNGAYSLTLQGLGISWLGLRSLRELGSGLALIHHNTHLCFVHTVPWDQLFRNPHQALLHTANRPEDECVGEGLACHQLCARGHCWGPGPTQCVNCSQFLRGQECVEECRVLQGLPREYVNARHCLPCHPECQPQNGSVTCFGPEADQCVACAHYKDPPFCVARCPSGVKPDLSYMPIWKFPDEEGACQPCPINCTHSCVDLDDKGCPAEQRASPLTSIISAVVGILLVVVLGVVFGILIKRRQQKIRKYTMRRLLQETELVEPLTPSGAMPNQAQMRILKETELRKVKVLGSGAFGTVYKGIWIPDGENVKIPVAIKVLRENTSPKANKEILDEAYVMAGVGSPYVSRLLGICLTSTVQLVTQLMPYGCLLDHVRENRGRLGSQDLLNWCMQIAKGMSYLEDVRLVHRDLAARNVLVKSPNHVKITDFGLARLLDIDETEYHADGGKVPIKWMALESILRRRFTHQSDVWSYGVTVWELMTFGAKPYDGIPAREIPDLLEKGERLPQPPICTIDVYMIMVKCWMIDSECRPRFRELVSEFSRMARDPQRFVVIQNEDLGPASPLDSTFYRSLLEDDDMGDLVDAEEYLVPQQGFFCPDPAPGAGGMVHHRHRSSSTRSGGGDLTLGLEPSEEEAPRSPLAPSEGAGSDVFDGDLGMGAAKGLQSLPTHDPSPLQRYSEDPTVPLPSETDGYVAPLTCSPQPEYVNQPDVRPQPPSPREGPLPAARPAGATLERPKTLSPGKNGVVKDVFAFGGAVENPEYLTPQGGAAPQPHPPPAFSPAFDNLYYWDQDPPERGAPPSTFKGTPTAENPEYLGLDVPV
# [4] = molecular target: Serine/threonine-protein kinase MARK2 (Homo sapiens) (UniProt Q7KZI7)
# Sequence of Serine/threonine-protein kinase MARK2 (Homo sapiens) (Q7KZI7 whole entry, canonical isoform): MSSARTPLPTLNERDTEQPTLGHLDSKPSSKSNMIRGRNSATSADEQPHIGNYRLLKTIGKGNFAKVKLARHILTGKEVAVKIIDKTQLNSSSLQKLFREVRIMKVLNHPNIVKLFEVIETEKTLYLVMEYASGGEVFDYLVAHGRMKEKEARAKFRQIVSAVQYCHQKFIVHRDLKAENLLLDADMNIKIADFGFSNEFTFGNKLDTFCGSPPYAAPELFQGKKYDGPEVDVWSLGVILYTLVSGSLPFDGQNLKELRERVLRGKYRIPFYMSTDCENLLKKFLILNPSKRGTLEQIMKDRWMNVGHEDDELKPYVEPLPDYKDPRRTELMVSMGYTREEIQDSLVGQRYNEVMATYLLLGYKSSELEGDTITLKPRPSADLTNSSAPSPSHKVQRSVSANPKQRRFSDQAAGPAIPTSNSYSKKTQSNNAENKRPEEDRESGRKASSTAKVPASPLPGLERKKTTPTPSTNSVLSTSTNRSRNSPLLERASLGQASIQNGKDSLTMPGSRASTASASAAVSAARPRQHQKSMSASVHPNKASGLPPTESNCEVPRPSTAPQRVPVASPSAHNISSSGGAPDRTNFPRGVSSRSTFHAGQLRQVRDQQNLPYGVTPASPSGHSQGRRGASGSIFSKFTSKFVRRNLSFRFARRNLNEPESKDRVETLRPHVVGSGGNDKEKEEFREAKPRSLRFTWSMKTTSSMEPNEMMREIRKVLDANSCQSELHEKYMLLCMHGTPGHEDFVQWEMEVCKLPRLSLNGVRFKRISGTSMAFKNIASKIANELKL
# [5] = molecular target: T1, Phosphorylase b kinase regulatory subunit alpha, liver isoform (Homo sapiens) (UniProt P46019)
# T1 sequence (whole entry): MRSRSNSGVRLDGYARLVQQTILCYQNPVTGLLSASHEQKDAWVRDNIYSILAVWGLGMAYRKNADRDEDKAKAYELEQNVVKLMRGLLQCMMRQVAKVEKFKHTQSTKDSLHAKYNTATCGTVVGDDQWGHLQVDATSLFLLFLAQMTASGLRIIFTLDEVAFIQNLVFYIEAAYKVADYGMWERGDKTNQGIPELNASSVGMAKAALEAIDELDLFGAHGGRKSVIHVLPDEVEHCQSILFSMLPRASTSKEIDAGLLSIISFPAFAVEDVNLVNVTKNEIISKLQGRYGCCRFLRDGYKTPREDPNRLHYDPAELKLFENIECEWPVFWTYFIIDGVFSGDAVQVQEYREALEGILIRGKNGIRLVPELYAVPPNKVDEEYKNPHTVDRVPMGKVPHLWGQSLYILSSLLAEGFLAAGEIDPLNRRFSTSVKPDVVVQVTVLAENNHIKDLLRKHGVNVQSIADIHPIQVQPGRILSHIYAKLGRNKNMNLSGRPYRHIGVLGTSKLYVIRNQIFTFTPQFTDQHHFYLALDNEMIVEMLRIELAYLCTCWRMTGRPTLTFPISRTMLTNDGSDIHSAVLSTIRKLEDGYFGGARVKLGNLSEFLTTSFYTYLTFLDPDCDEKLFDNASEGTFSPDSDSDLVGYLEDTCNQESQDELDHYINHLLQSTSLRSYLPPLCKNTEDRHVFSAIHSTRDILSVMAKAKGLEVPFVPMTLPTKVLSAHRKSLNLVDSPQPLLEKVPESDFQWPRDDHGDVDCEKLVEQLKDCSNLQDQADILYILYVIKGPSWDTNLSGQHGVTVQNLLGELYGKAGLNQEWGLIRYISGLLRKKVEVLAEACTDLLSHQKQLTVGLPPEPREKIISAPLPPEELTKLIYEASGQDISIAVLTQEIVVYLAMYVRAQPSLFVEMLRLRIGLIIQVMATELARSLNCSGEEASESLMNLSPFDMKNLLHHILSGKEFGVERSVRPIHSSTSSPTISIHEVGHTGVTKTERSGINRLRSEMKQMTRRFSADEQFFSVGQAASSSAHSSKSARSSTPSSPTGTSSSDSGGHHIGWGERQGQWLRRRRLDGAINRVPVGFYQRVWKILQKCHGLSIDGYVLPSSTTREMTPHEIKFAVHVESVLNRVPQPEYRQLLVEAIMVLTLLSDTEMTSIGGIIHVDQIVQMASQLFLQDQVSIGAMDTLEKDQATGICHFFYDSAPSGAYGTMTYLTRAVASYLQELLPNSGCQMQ
# [6] = molecular target: PI3-kinase p110-alpha/p85-alpha (Homo sapiens) (UniProt P27986+P42336)
# [7] = molecular target: Rho-associated protein kinase 2 (Homo sapiens) (UniProt O75116)
# Sequence of Rho-associated protein kinase 2 (Homo sapiens) (O75116 whole entry, looked up): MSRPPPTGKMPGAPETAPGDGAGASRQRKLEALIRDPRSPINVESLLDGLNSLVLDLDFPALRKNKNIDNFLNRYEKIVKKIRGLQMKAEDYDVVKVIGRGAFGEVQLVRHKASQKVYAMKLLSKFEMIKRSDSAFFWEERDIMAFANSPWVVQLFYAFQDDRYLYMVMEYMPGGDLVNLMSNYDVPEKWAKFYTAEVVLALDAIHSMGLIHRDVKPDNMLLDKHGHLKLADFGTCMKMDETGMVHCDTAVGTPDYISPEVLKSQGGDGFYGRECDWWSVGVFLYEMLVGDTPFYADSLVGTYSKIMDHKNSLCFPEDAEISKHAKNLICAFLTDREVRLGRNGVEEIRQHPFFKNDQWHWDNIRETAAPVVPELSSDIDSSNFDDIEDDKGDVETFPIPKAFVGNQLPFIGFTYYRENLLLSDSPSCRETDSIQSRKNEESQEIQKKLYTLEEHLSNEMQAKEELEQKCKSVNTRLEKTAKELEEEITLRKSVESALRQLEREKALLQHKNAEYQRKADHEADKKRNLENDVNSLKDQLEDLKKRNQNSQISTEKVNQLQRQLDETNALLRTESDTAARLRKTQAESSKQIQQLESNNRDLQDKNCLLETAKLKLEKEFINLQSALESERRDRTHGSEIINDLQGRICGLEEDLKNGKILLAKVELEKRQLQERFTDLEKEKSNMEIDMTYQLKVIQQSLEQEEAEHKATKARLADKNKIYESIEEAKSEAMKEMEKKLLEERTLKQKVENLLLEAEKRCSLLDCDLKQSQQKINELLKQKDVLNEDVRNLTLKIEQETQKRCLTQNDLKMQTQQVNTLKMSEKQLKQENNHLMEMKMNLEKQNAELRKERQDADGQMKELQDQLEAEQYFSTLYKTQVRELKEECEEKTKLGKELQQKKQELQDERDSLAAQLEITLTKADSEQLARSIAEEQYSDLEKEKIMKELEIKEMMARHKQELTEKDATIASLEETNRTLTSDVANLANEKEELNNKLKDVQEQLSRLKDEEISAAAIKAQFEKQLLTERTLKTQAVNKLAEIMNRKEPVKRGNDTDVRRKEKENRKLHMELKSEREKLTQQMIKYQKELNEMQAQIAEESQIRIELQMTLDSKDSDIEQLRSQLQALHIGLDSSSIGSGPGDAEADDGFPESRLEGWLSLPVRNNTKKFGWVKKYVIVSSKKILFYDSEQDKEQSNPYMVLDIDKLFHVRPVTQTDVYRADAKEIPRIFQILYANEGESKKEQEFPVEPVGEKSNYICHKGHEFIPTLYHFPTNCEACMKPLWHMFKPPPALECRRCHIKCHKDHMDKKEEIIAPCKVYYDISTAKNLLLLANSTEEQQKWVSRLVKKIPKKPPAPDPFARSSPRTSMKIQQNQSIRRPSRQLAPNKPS
# [8] = molecular target: T2, Aurora kinase A (Homo sapiens) (UniProt O14965)
# T2 sequence (whole entry): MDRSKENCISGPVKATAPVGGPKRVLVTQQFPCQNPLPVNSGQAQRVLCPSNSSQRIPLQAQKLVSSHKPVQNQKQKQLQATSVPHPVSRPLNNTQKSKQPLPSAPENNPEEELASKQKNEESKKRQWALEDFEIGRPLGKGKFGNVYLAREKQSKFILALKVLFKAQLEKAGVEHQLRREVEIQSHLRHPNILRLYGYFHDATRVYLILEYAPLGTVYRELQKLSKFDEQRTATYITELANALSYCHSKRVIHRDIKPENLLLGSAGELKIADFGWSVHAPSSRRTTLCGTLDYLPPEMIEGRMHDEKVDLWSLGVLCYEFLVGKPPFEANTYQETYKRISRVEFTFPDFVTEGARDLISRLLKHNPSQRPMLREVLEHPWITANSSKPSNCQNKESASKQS
# [9] = molecular target: Tyrosine-protein kinase SYK (Homo sapiens) (UniProt P43405)
# [10] = molecular target: T3, Tyrosine-protein kinase ZAP-70 (Homo sapiens) (UniProt P43403)
# T3 sequence (whole entry): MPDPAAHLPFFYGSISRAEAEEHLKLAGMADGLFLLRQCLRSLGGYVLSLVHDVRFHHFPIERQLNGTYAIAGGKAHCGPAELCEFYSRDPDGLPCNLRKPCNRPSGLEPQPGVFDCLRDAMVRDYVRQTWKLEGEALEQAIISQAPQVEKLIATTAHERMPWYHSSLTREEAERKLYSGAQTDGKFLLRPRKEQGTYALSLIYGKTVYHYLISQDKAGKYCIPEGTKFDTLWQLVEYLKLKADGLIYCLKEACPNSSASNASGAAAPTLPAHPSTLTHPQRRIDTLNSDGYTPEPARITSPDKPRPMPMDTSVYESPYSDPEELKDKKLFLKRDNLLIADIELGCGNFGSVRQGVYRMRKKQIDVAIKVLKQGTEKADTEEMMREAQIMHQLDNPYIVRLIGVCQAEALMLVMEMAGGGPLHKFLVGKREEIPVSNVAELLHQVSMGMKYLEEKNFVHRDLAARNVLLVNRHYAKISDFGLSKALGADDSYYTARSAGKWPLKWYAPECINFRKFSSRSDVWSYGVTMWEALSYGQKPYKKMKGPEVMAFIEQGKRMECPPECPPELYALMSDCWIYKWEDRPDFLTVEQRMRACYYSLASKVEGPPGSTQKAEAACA
# Sequence of AMP-activated protein kinase (AMPK) alpha-1/beta-1/gamma-1 (Homo sapiens) (P54619 whole entry): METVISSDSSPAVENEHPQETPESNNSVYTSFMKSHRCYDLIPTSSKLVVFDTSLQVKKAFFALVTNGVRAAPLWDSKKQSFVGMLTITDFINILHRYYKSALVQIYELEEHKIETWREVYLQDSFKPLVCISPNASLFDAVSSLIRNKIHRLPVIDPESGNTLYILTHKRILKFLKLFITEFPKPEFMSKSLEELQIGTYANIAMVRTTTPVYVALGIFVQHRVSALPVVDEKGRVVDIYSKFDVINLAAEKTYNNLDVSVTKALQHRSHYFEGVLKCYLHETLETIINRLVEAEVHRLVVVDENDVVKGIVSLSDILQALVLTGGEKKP
# Sequence of AMP-activated protein kinase (AMPK) alpha-1/beta-1/gamma-1 (Homo sapiens) (Q13131 whole entry partner): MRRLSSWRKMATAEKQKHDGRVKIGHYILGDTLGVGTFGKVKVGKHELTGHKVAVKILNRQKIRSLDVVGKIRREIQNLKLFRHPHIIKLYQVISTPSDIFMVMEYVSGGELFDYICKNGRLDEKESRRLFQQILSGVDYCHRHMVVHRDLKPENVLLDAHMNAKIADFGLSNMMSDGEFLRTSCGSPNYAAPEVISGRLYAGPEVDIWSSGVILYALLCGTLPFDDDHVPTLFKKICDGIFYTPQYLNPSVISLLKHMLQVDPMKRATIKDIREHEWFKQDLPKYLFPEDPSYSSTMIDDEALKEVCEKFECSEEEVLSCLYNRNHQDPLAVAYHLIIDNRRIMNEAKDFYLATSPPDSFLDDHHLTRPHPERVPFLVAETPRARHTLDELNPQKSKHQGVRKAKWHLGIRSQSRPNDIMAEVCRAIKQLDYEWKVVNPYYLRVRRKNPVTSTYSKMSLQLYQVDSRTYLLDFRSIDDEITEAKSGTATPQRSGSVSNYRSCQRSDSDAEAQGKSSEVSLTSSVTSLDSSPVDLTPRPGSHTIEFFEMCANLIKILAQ
# Sequence of AMP-activated protein kinase (AMPK) alpha-1/beta-1/gamma-1 (Homo sapiens) (Q9Y478 2-270 partner limits assumed): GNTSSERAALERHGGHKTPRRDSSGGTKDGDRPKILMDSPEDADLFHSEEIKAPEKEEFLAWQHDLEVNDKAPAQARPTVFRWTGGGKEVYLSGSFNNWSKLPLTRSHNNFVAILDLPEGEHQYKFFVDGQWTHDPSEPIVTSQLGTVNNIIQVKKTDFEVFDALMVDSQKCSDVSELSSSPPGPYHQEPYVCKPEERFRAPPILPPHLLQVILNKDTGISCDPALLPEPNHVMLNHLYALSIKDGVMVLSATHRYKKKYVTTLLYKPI
compound,measurement,setting,value
CCOC(=O)c1cc2cc(-c3cc(C(=O)NCc4ccc(C(=O)O)cc4)nn3C)ccc2[nH]1 [BI 4394],residual activity,[1],8%
same,residual activity,[2],88%
same,residual activity,[3],87%
same,residual activity,[4],107%
same,residual activity,[5],82%
same,residual activity,[6],133%
same,residual activity,[7],56%
same,residual activity,[8],-1%
same,residual activity,[9],56%
same,residual activity,[10],100%
